Read-outs that look alike come from different tables or passages of the source.
How the values were obtained:
[1] = tested on: MUTU-1 Burkitt lymphoma cell line (EBV+); assay: cells; conditions: Mutu-1, 24 h; for IC50: read-out: IC50 MUTU-I 24 h
[2] = tested on: DG-75 Burkitt lymphoma cell line (EBV−, chemoresistant); assay: cells; conditions: Homo sapiens, DG-75, 48 h
[3] = read-out: MUTU-1 Cell Viability % 1 μM, 1 μM, 24 h
[4] = read-out: MUTU-1 Cell Viability % 10 μM, 10 μM, 24 h
[5] = read-out: DG-75 Cell Viability % 1 μM, 1 μM, 48 h
[6] = read-out: DG-75 Cell Viability % 10 μM, 10 μM, 48 h

| SMILES | viability at 1 µM [1, 3] | viability at 10 µM [1, 4] | viability at 1 µM [2, 5] | viability at 10 µM [2, 6] | melting point | viability at 1 µM ([1]; read-out: MUTU-1 Cell Viability % 1 μM) | viability at 10 µM ([1]; read-out: MUTU-1 Cell Viability % 10 μM) | viability at 1 µM ([2]; read-out: DG-75 Cell Viability % 1 μM) | viability at 10 µM ([2]; read-out: DG-75 Cell Viability % 10 μM) | IC50 [1] | viability at 0.5 µM ([2]; read-out: viable cells in DG-75 at 0.5 µM, 0.5 µM, 48 h) |
| --- | --- | --- | --- | --- | --- | --- | --- | --- | --- | --- | --- |
| O=CC12c3ccccc3C(c3ccccc31)C1C(=O)NC(=O)C12 (stereo not drawn) [Compound 21e] | 96.1% | 95.1% | 76% | 71.2% | – | – | – | – | – | – | – |
| O=C1C2C3c4ccccc4C(/C=N/O)(c4ccccc43)C2C(=O)N1c1ccccc1 (stereo not drawn) [Compound 23k, (E)-12,14-Dioxo-13-phenyl-9,10-[3,4]epipyrroloanthracene-9(10H)-carbaldehyde oxime] | 96.9% | 83.9% | 81.7% | 74.1% | 238 to 242 °C | – | – | – | – | – | – |
| C/C(=C\C12c3ccccc3C(c3ccccc31)C1C(=O)N(Cc3ccccc3)C(=O)C12)[N+](=O)[O-] (stereo not drawn) [Compound 17j, (E)-13-Benzyl-9-(2-nitroprop-1-en-1-yl)-9,10-dihydro-9,10-[3,4]epipyrroloanthracene-12,14-dione] | 94.6% | 85.6% | 104% | 87.9% | 232 to 236 °C | – | – | – | – | – | – |
| N/N=C/C12c3ccccc3C(c3ccccc31)C1C(=O)N(c3ccccc3)C(=O)C12 (stereo not drawn) [Compound 23h, (E)-9-(Hydrazonomethyl)-13-phenyl-9,10-dihydro-9,10-[3,4]epipyrroloanthracene-12,14-dione] | 91.1% | 78% | 85.8% | 87.4% | – | – | – | – | – | – | – |
| O=C1NC(=O)C2C1C1c3ccccc3C2(O)c2ccccc21 (stereo not drawn) [Compound 21k, 9-Hydroxy-9,10-dihydro-9,10-[3,4]epipyrroloanthracene-12,14-dione] | 104% | 100% | 65.9% | 80.9% | 253 to 255 °C | – | – | – | – | – | – |
| CC/C(=C\C12c3ccccc3C(Cl)(c3ccccc31)C1C(=O)N(c3ccccc3)C(=O)C12)[N+](=O)[O-] (stereo not drawn) [Compound 17h, (E)-9-Chloro-10-(2-nitrobut-1-en-1-yl)-13-phenyl-9,10-dihydro-9,10-[3,4]epipyrroloanthracene-12,14-dione] | 107% | 96.3% | 89.2% | 90.3% | 261 to 262 °C | – | – | – | – | – | – |
| CNCCCC12CCC(c3ccccc31)c1ccccc12 [Maprotiline 8, maprotiline, reference compound] | – | – | – | – | – | 93.1% | 73% | 102% | 65.1% | – | – |
| N#C/C=C/C12c3ccccc3C(c3ccccc31)C1C(=O)OC(=O)C12 (stereo not drawn) [Compound 23a, (E)-3-(12,14-Dioxo-9,10-[3,4]furanoanthracen-9(10H)-yl)acrylonitrile] | 82.7% | 82.6% | 89% | 75.8% | 215 to 219 °C | – | – | – | – | – | – |
| CCOC(=O)C1CC2c3ccccc3C1(/C=C/[N+](=O)[O-])c1ccccc12 (stereo not drawn) [Compound 19b, Ethyl (E)-10-(2-nitrovinyl)-9,10-dihydro-9,10-ethanoanthracene-11-carboxylate] | 48.9% | 0.69% | 9.8% | 13.4% | – | – | – | – | – | – | – |
| CC/C(=C\C12c3ccccc3C(c3ccccc31)C1C(=O)N(c3ccccc3)C(=O)C12)[N+](=O)[O-] (stereo not drawn) [Compound 17b, (E)-9-(2-Nitrobut-1-en-1-yl)-13-phenyl-9,10-dihydro-9,10-[3,4]epipyrroloanthracene-12,14-dione] | 92.6% | 83.4% | 96.4% | 99.9% | 259 to 263 °C | – | – | – | – | – | – |
| C/C(=C\C12c3ccccc3C(c3ccccc31)C1C(=O)NC(=O)C12)[N+](=O)[O-] (stereo not drawn) [Compound 13h, (E)-9-(2-Nitroprop-1-en-1-yl)-9,10-dihydro-9,10-[3,4]epipyrroloanthracene-12,14-dione] | 99.7% | 82.6% | 106% | 101% | 296 to 300 °C | – | – | – | – | – | – |
| O=C1NC(=O)C2C1C1c3ccccc3C2(/C=N/O)c2ccccc21 (stereo not drawn) [Compound 23j, (E)-12,14-Dioxo-9,10-[3,4]epipyrroloanthracene-9(10H)-carbaldehyde oxime] | 92.8% | 87.6% | 69.1% | 63.9% | 272 to 273 °C | – | – | – | – | – | – |
| N#CC(C#N)=CC12c3ccccc3C(c3ccccc31)C1C(=O)NC(=O)C12 (stereo not drawn) [Compound 23e, 2-((12,14-Dioxo-9,10-[3,4]epipyrroloanthracen-9(10H)-yl)methylene)malononitrile] | 82.9% | 83.6% | 85.7% | 98.7% | 281 to 284 °C | – | – | – | – | – | – |
| O=C1C2C3c4ccccc4C(/C=C/[N+](=O)[O-])(c4ccccc43)C2C(=O)N1c1ccc(F)cc1 (stereo not drawn) [Compound 16e, (E)-13-(4-Fluorophenyl)-9-(2-nitrovinyl)-9,10-dihydro-9,10-[3,4]epipyrroloanthracene-12,14-dione] | 0.07% | 1.4% | 35.4% | 2.3% | 242 to 243 °C | – | – | – | – | 250 nM | – |
| O=CC12c3ccccc3C(c3ccccc31)C1C(=O)OC(=O)C12 (stereo not drawn) [Compound 21d] | 87.4% | 88.4% | 64.8% | 64.7% | – | – | – | – | – | – | – |
| COC(=O)C1CC2c3ccccc3C1(/C=C/[N+](=O)[O-])c1ccccc12 (stereo not drawn) [Compound 19c, Methyl (E)-10-(2-nitrovinyl)-9,10-dihydro-9,10-ethanoanthracene-11-carboxylate] | 15.6% | 8.4% | 92.2% | 1.4% | – | – | – | – | – | 540 nM | – |
| O=C1OC(=O)C2C1C1c3ccccc3C2(O)c2ccccc21 (stereo not drawn) [Compound 21j] | 103% | 100% | 68% | 93% | – | – | – | – | – | – | – |
| O=CC12c3ccccc3C(c3ccccc31)C1C(=O)N(c3ccccc3)C(=O)C12 (stereo not drawn) [Compound 21f] | 102% | 77.7% | 102% | 72.4% | – | – | – | – | – | – | – |
| O=C1OC(=O)C2C1C1c3ccccc3C2(C(=O)O)c2ccccc21 (stereo not drawn) [Compound 21g] | 99.2% | 88.8% | 93.1% | 65.4% | – | – | – | – | – | – | – |
| O=C1NC(=O)C2C1C1c3ccccc3C2(C(=O)O)c2ccccc21 (stereo not drawn) [Compound 21h] | 92.6% | 92% | 86.3% | 73.1% | – | – | – | – | – | – | – |
| CN(C)CCCN1c2ccccc2Sc2ccc(Cl)cc21 [Compound 5] | – | – | 6 to 28% | – | – | – | – | – | – | – | 18 to 57% |
| O=C1OC(=O)C2C3c4ccccc4C(c4ccccc43)C12 (stereo not drawn) [Compound 21a] | 103% | 93.1% | 91.4% | 69.9% | – | – | – | – | – | – | – |
| O=C1C2C3c4ccccc4C(C(=O)O)(c4ccccc43)C2C(=O)N1c1ccccc1 (stereo not drawn) [Compound 21i] | 103% | 92.5% | 73.2% | 67.5% | – | – | – | – | – | – | – |
